Measurements reported in PubChem BioAssay AID1259411 (Chemical Carcinogenesis Research Information System (CCRIS), 2018).
Calls of active or inactive are those of the source. How the calls were made is not given here.

Tested on: rodent carcinogenicity bioassays, tumor incidence
Experiment: CCRIS carcinogenicity studies
In short: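 Archive of carcinogenicity, mutagenicity, tumor promotion and tumor inhibition results drawn from journals, NCI reports and other sources, expert-reviewed; covers 1985-2011 and is no longer updated.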

## OCC(CO)(CBr)CBr
Species: GUPPIE, Strain/Sex: MALE, Route: AQUARIUM WATER, Dose: 0, 24, 60, 150 MG/L FOR 9 MO THEN IN CLEAN WATER FOR 7 MO (STUDY DURATION: 16 MO), Dose: 0, 24, 60, 150 MG/L FOR 9 MO THEN IN CLEAN WATER FOR 7 MO (STUDY DURATION: 16 MO), Tumor Site: Type of Lesion: LIVER: HEPATOCELLULAR ADENOMA OR CARCINOMA
  carcinogen call: active; positive
Species: GUPPIE, Strain/Sex: MALE, Route: AQUARIUM WATER, Dose: 0, 24, 60, 150 MG/L FOR 16 MO (STUDY DURATION: 16 MO), Dose: 0, 24, 60, 150 MG/L FOR 16 MO (STUDY DURATION: 16 MO), Tumor Site: Type of Lesion: LIVER: HEPATOCELLULAR ADENOMA OR CARCINOMA
  carcinogen call: active; positive; due to mortality, exposure in 150 mg/l group terminated on day 443
Species: MEDAKA, Strain/Sex: FEMALE, Route: AQUARIUM WATER, Dose: 0, 24, 60, 150 MG/L FOR 14 MO (STUDY DURATION: 14 MO), Dose: 0, 24, 60, 150 MG/L FOR 14 MO (STUDY DURATION: 14 MO)
  carcinogen call: inactive; negative
Species: MEDAKA, Strain/Sex: MALE, Route: AQUARIUM WATER, Dose: 0, 24, 60, 150 MG/L FOR 9 MO THEN IN CLEAN WATER FOR 5 MO (STUDY DURATION: 14 MO), Dose: 0, 24, 60, 150 MG/L FOR 9 MO THEN IN CLEAN WATER FOR 5 MO (STUDY DURATION: 14 MO), Tumor Site: Type of Lesion: LIVER: HEPATOCELLULAR ADENOMA OR CARCINOMA
  carcinogen call: active; positive
Species: MEDAKA, Strain/Sex: MALE, Route: AQUARIUM WATER, Dose: 0, 24, 60, 150 MG/L FOR 14 MO (STUDY DURATION: 14 MO), Dose: 0, 24, 60, 150 MG/L FOR 14 MO (STUDY DURATION: 14 MO), Tumor Site: Type of Lesion: LIVER: HEPATOCELLULAR ADENOMA OR CARCINOMA
  carcinogen call: active; positive
Species: MOUSE, Strain/Sex: B6C3F1/FEMALE, Route: ORAL, Dose: 0, 312, 625, 1250 PPM IN DIET FOR 104-105 WK (STUDY DURATION: 106 WK), Dose: 0, 312, 625, 1250 PPM IN DIET FOR 104-105 WK (STUDY DURATION: 106 WK), Tumor Site: Type of Lesion: HARDERIAN GLAND: ADENOMA, CARCINOMA, LUNG: ALVEOLAR/BRONCHIOLAR ADENOMA OR CARCINOMA, SKIN(SUBCUTANEOUS TISSUE): SARCOMA, Tumor Site: Type of Lesion: HARDERIAN GLAND: ADENOMA, CARCINOMA, LUNG: ALVEOLAR/BRONCHIOLAR ADENOMA OR CARCINOMA, SKIN(SUBCUTANEOUS TISSUE): SARCOMA
  carcinogen call: active; positive
Species: MOUSE, Strain/Sex: B63CF1/MALE, Route: ORAL, Dose: 0, 312, 625, 1250 PPM IN DIET FOR 104-105 WK (STUDY DURATION: 106 WK), Dose: 0, 312, 625, 1250 PPM IN DIET FOR 104-105 WK (STUDY DURATION: 106 WK), Tumor Site: Type of Lesion: HARDERIAN GLAND: ADENOMA, ADENOMA OR CARCINOMA, LUNG: ALVEOLAR/BRONCHIOLAR ADENOMA, ALVEOLAR/BRONCHIOLAR CARCINOMA
  carcinogen call: active; positive
Species: RAT, Strain/Sex: F344/FEMALE, Route: ORAL, Dose: 0, 2500, 5000, 10000 PPM IN DIET FOR 104-105 WK (STUDY DURATION: 105 WK), Dose: 0, 2500, 5000, 10000 PPM IN DIET FOR 104-105 WK (STUDY DURATION: 105 WK), Tumor Site: Type of Lesion: ESOPHAGUS: SQUAMOUS CELL PAPILLOMA, MAMMARY GLAND: FIBROADENOMA, ORAL CAVITY: SQUAMOUS CELL PAPILLOMA OR SQUAMOUS CELL C, Tumor Site: Type of Lesion: ESOPHAGUS: SQUAMOUS CELL PAPILLOMA, MAMMARY GLAND: FIBROADENOMA, ORAL CAVITY: SQUAMOUS CELL PAPILLOMA OR SQUAMOUS CELL C
  carcinogen call: active; positive
Species: RAT, Strain/Sex: F344/MALE, Route: ORAL, Dose: 0, 2500, 5000, 10000 PPM IN DIET FOR 104-105 WK (STUDY DURATION: 105 WK), Dose: 0, 2500, 5000, 10000 PPM IN DIET FOR 104-105 WK (STUDY DURATION: 105 WK), Tumor Site: Type of Lesion: ESOPHAGUS: SQUAMOUS CELL PAPILLOMA, LARGE INTESTINE: ADENOMATOUS POLYP, MAMMARY GLAND: FIBROADENOMA, FIBROADENOMA OR ADE, Tumor Site: Type of Lesion: ESOPHAGUS: SQUAMOUS CELL PAPILLOMA, LARGE INTESTINE: ADENOMATOUS POLYP, MAMMARY GLAND: FIBROADENOMA, FIBROADENOMA OR ADE
  carcinogen call: active; positive
Species: RAT, Strain/Sex: F344/MALE, Route: ORAL, Dose: 0, 20000 PPM IN DIET FOR 3 MO FOLLOWED BY NORMAL DIET FOR 21 MO (STUDY DURATION: 2 YR), Tumor Site: Type of Lesion: LARGE INTESTINE: ADENOMATOUS POLYP, LUNG: ALVEOLAR/BRONCHIOLAR ADENOMA OR CARCINOMA, MAMMARY GLAND: FIBROADENOMA, ORAL C, Tumor Site: Type of Lesion: LARGE INTESTINE: ADENOMATOUS POLYP, LUNG: ALVEOLAR/BRONCHIOLAR ADENOMA OR CARCINOMA, MAMMARY GLAND: FIBROADENOMA, ORAL C
  carcinogen call: active; positive

## CCO
Species: MOUSE, Strain/Sex: B6C3F1/FEMALE (48/GROUP), Route: ORAL, Dose: 2.5% OR 5% IN DRINKING WATER (STUDY DURATION: 2 YRS)
  carcinogen call: inactive; negative; inadequate study to determine carcinogenic activity
Species: MOUSE, Strain/Sex: B6C3F1/MALE (48/GROUP), Route: ORAL, Dose: 2.5% OR 5% IN DRINKING WATER (STUDY DURATION: 2 YRS), Tumor Site: Type of Lesion: LIVER: HEPATOCELLULAR ADENOMA OR CARCINOMA (COMBINED)
  carcinogen call: active; positive; inadequate study to determine carcinogenic activity
Species: RAT, Strain/Sex: SPRAGUE-DAWLEY/FEMALE, Route: ORAL, Dose: 0, 1, 3% IN LIQUID DIET FOR 104 WK (STUDY DURATION: 120 WK), Dose: 0, 1, 3% IN LIQUID DIET FOR 104 WK (STUDY DURATION: 120 WK)
  carcinogen call: inactive; negative
Species: RAT, Strain/Sex: SPRAGUE-DAWLEY/MALE, Route: ORAL, Dose: 0, 1, 3% IN LIQUID DIET FOR 104 WK (STUDY DURATION: 120 WK), Dose: 0, 1, 3% IN LIQUID DIET FOR 104 WK (STUDY DURATION: 120 WK)
  carcinogen call: inactive; negative

## FCC(F)(F)F
Species: MOUSE, Strain/Sex: B6C3F1/FEMALE, Route: INHALATION, Dose: 0, 2500, 15000, 75000 PPM SNOUT-ONLY INHALATION 1 HR/D FOR AT LEAST 104 WK (STUDY DURATION: 106 WK), Dose: 0, 2500, 15000, 75000 PPM SNOUT-ONLY INHALATION 1 HR/D FOR AT LEAST 104 WK (STUDY DURATION: 106 WK)
  carcinogen call: inactive; negative
Species: MOUSE, Strain/Sex: B6C3F1/MALE, Route: INHALATION, Dose: 0, 2500, 15000, 75000 PPM SNOUT-ONLY INHALATION 1 HR/D FOR AT LEAST 104 WK (STUDY DURATION: 106 WK), Dose: 0, 2500, 15000, 75000 PPM SNOUT-ONLY INHALATION 1 HR/D FOR AT LEAST 104 WK (STUDY DURATION: 106 WK)
  carcinogen call: inactive; negative
Species: RAT, Strain/Sex: ALPK:APFSD/FEMALE, Route: INHALATION, Dose: 0, 2500, 10000, 50000 PPM 6 HR/D 5 D/WK FOR 104 WK (STUDY DURATION: 104 WK), Dose: 0, 2500, 10000, 50000 PPM 6 HR/D 5 D/WK FOR 104 WK (STUDY DURATION: 104 WK)
  carcinogen call: inactive; negative
Species: RAT, Strain/Sex: ALPK:APFSD/MALE, Route: INHALATION, Dose: 0, 2500, 10000, 50000 PPM 6 HR/D 5 D/WK FOR 104 WK (STUDY DURATION: 104 WK), Dose: 0, 2500, 10000, 50000 PPM 6 HR/D 5 D/WK FOR 104 WK (STUDY DURATION: 104 WK), Tumor Site: Type of Lesion: TESTES: LEYDIG CELL ADENOMA
  carcinogen call: active; positive
Species: RAT, Strain/Sex: WISTAR/FEMALE, Route: INHALATION, Dose: 0, 2500, 10000, 50000 PPM SNOUT-ONLY INHALATION 1 HR/D FOR AT LEAST 108 WK (STUDY DURATION: 110 WK), Dose: 0, 2500, 10000, 50000 PPM SNOUT-ONLY INHALATION 1 HR/D FOR AT LEAST 108 WK (STUDY DURATION: 110 WK)
  carcinogen call: inactive; negative
Species: RAT, Strain/Sex: WISTAR/MALE, Route: INHALATION, Dose: 0, 2500, 10000, 50000 PPM SNOUT-ONLY INHALATION 1 HR/D FOR AT LEAST 108 WK (STUDY DURATION: 110 WK), Dose: 0, 2500, 10000, 50000 PPM SNOUT-ONLY INHALATION 1 HR/D FOR AT LEAST 108 WK (STUDY DURATION: 110 WK)
  carcinogen call: inactive; negative
